{"source": "patent US10501470B2", "about": "“Use of asarinin in preparation of medicines for treating various coughs” (priority 2017, dated 2019)", "test_system": "cough of guinea pigs induced by citric acid", "assay": "citric acid induced guinea pig cough model", "type": "in vivo, Hartley guinea pigs", "settings": "for Cough Time (Number of Times) / Cough Incubation Period: once daily for 3 days, x±s, n=8; for Cough Time (Number of Times): cough times within 6 min after citric acid atomization; for Cough Incubation Period: within 6 min after citric acid atomization; for Antitussive Ratio: (N(blank control)-N(administration group))/N(blank control)x100%", "description": "Experimental animals: 250-350 g of common level Hartley guinea pigs, including half males and half females are provided by Guangdong Medical Experimental Animal Center, wherein the number of the animal certificate is SCXK (Yue) 2008-0002.\nReagents and instruments: citric acid monohydrate (Guangzhou Chemical Reagent Factory, batch number: 20121001-2), wherein 0.8 M of citric acid solution is prepared by adding normal saline into citric acid monohydrate when in use; an animal noninvasive Buxco lung function detecting system (Buxco Company of America); an Aeroneb Pro atomizer (Aerogen (Ireland) Co., Ltd.); and a gavage needle (Guangdong Medical Experimental Animal Center).\nA citric acid induced guinea pig cough model is adopted for efficacy evaluation. 112 Hartley guinea pigs are put in a 6 L plethysmograph of the animal noninvasive Buxco lung function detecting system one by one; the air velocity of a drift indicator is 2.5 L/min; 0.8 M of atomized aerosol of citric acid ultrapure aqueous solution is led for 1 min by the Aeroneb Pro atomizer; the average diameter of the atomized granules is […]; observation is carried out for 5 min; the sound of cough is recorded and amplified by an indoor microphone; sound waves are analyzed by Biosystem XA software; and computer software is used for processing sound data and recording cough situations. A trained observer observes whether a cough response exists or not, records the cough times within 6 min since atomization and selects the guinea pigs with more than 10 cough times as qualified animals for tests.\n56 Hartley guinea pigs qualified by screening, including half males and half females, are randomly divided into 7 groups; 1 mL/100 g of normal saline is provided to a blank control group; a corresponding solvent (Tween-80 aqueous solution with 5% volume concentration) with equal volume is provided to a solvent group; 30 mg/kg of codeine phosphate with equal volume is provided to a positive drug group, asarinin (30 mg/kg, 60 mg/kg and 120 mg/kg of samples in embodiment 1) and total volatile oil of asarum (200 mg/kg of samples in embodiment 1) with equal volume are provided to each of administration groups; administration is carried out one time every day for successive 3 days. A citric acid atomization simulation test is carried out in the animal noninvasive Buxco lung function detecting system within 2 h after last administration (atomization conditions are described above); the cough times (N) and the cough incubation periods within 6 min are recorded; and the antitussive ratios of all the administration groups are calculated by a formula: antitussive ratio=(N(blank control)−N(administration group))/N(blank control)×100%.\nThe data are expressed by x±s, and a one-way analysis of variance is carried out on parameters of all the groups by IBM SPSS Statistics 19.0 software.", "data": [{"smiles": "COc1ccc2c3c1O[C@H]1[C@@H](O)C=C[C@H]4[C@@H](C2)N(C)CC[C@@]341", "note": "[Codeine Phosphate, reference compound]", "values": [{"measurement": "Cough Time (Number of Times)", "setting": "30 mg/kg", "result": "12.0 ± 2.3 Number of Times"}, {"measurement": "Cough Incubation Period", "setting": "30 mg/kg", "result": "130.0 ± 32.4", "unit": "S"}, {"measurement": "Antitussive Ratio", "setting": "30 mg/kg", "result": 55.2, "unit": "%"}]}, {"smiles": "c1cc2c(cc1C1OCC3C1CO[C@H]3c1ccc3c(c1)OCO3)OCO2", "note": "(stereo in doubt) [Asarinin, 5,5′-[(1R,3aR,4S,6aR)-tetrahydro-1H,3H-furo[3,4-c]furan-1,4-diyl]bis-1,3-Benzodioxole]", "values": [{"measurement": "Cough Time (Number of Times)", "setting": "30 mg/kg", "result": "16.3 ± 2.2 Number of Times"}, {"measurement": "Cough Incubation Period", "setting": "30 mg/kg", "result": "98.5 ± 9.5", "unit": "S"}, {"measurement": "Antitussive Ratio", "setting": "30 mg/kg", "result": 39.2, "unit": "%"}, {"measurement": "Cough Time (Number of Times)", "setting": "60 mg/kg", "result": "13.2 ± 2.1 Number of Times"}, {"measurement": "Cough Incubation Period", "setting": "60 mg/kg", "result": "94.2 ± 13.6", "unit": "S"}, {"measurement": "Antitussive Ratio", "setting": "60 mg/kg", "result": 50.7, "unit": "%"}, {"measurement": "Cough Time (Number of Times)", "setting": "120 mg/kg", "result": "12.6 ± 1.9 Number of Times"}, {"measurement": "Cough Incubation Period", "setting": "120 mg/kg", "result": "127.3 ± 24.8", "unit": "S"}, {"measurement": "Antitussive Ratio", "setting": "120 mg/kg", "result": 53.0, "unit": "%"}]}]}
